Data taken from the NIST ThermoML archive (doi:10.1016/j.fluid.2016.04.009).

How the values were obtained:
[1] = for Normal melting temperature: Crystal, DTA; for viscosity / mass density: 101.33 kPa; for viscosity / mass density / surface tension liquid-gas: Liquid; for viscosity: Concentric cylinders viscometry; for mass density: Vibrating tube method; for surface tension liquid-gas: Pendant drop shape
[2] = Molar enthalpy of transition or fusion; settings: Crystal; DSC
[3] = refractive index (Na D-line) (dimensionless); settings: 101.33 kPa, Liquid, Standard Abbe refractometry
[4] = molar heat capacity at constant pressure; settings: 298.15 K; 101.33 kPa; Liquid; Drop calorimetry

CCCCCC[n+]1ccn(C)c1.O=S(=O)([N-]S(=O)(=O)C(F)(F)F)C(F)(F)F
Settings | Normal melting temperature [°C]
[1] | -10.5

CC(C)C[N+]1(C)CCCC1.O=S(=O)([N-]S(=O)(=O)C(F)(F)F)C(F)(F)F
Settings | mass density [kg/m3] | refractive index | surface tension liquid-gas [mN/m] | viscosity [mPa·s]
[1], 293.15 K | 1404.5 | – | – | 83.61
[1], 298.15 K | 1400 | – | – | 66.29
[1], 298.2 K | – | – | 33.54 | –
[1], 303.15 K | 1395.6 | – | – | 53.53
[1], 308.15 K | 1391.2 | – | – | 43.91
[1], 308.2 K | – | – | 33.1 | –
[1], 313.15 K | 1386.8 | – | – | 36.52
[1], 318.15 K | 1382.4 | – | – | 30.75
[1], 318.2 K | – | – | 32.65 | –
[1], 323.15 K | 1378 | – | – | 26.18
[1], 328.15 K | 1373.7 | – | – | 22.52
[1], 328.2 K | – | – | 32.2 | –
[1], 333.15 K | 1369.4 | – | – | 19.57
[1], 338.15 K | 1365.2 | – | – | 17.09
[1], 338.2 K | – | – | 31.75 | –
[1], 343.15 K | 1360.9 | – | – | 15.06
[1], 343.2 K | – | – | 31.53 | –
[1], 348.15 K | 1356.7 | – | – | 13.36
[1], 353.15 K | 1352.5 | – | – | 11.95
[1], 358.15 K | 1348.3 | – | – | 10.7
[1], 363.15 K | 1344.1 | – | – | 9.65
[3], 288.15 K | – | 1.42708 | – | –
[3], 293.15 K | – | 1.42563 | – | –
[3], 298.15 K | – | 1.42418 | – | –
[3], 303.15 K | – | 1.42273 | – | –
[3], 308.15 K | – | 1.42127 | – | –
[3], 313.15 K | – | 1.41982 | – | –
[3], 318.15 K | – | 1.41837 | – | –

Settings | Molar enthalpy of transition or fusion [kJ/mol] | Normal melting temperature [°C] | molar heat capacity at constant pressure [J/K/mol]
[1] | – | -0.2 | –
[2] | 13.1 | – | –
[4] | – | – | 582.08

CCCC[N+]1(C)CCCCC1.O=S(=O)([N-]S(=O)(=O)C(F)(F)F)C(F)(F)F
Settings | mass density [kg/m3] | refractive index | surface tension liquid-gas [mN/m] | viscosity [mPa·s]
[1], 293.15 K | 1386.9 | – | – | 261.28
[1], 298.15 K | 1382.5 | – | – | 189.11
[1], 298.2 K | – | – | 34.14 | –
[1], 303.15 K | 1378.1 | – | – | 141.44
[1], 308.15 K | 1373.8 | – | – | 108.27
[1], 308.2 K | – | – | 33.65 | –
[1], 313.15 K | 1369.5 | – | – | 84.87
[1], 318.15 K | 1365.2 | – | – | 67.24
[1], 318.2 K | – | – | 33.17 | –
[1], 323.15 K | 1361 | – | – | 54.34
[1], 328.15 K | 1356.7 | – | – | 44.55
[1], 328.2 K | – | – | 32.68 | –
[1], 333.15 K | 1352.5 | – | – | 37.09
[1], 338.15 K | 1348.3 | – | – | 31.09
[1], 338.2 K | – | – | 32.2 | –
[1], 343.15 K | 1344.1 | – | – | 26.41
[1], 343.2 K | – | – | 31.96 | –
[1], 348.15 K | 1340 | – | – | 22.65
[1], 353.15 K | 1335.9 | – | – | 19.65
[1], 358.15 K | 1331.8 | – | – | 17.09
[1], 363.15 K | 1327.7 | – | – | 15.01
[3], 288.15 K | – | 1.43251 | – | –
[3], 293.15 K | – | 1.43105 | – | –
[3], 298.15 K | – | 1.42959 | – | –
[3], 303.15 K | – | 1.42813 | – | –
[3], 308.15 K | – | 1.42667 | – | –
[3], 313.15 K | – | 1.42521 | – | –
[3], 318.15 K | – | 1.42375 | – | –

Settings | molar heat capacity at constant pressure [J/K/mol]
[4] | 607.52

CCCC[n+]1cccc(C)c1.O=S(=O)([N-]S(=O)(=O)C(F)(F)F)C(F)(F)F
Settings | mass density, [1] [kg/m3] | refractive index, [3] | viscosity, [1] [mPa·s]
288.15 K | – | 1.44894 | –
293.15 K | 1418.7 | 1.44737 | 84.2
298.15 K | 1414.1 | 1.4458 | 65.74
303.15 K | 1409.4 | 1.44423 | 52.39
308.15 K | 1404.8 | 1.44266 | 42.46
313.15 K | 1400.2 | 1.44109 | 34.93
318.15 K | 1395.6 | 1.43952 | 29.13
323.15 K | 1391.1 | – | 24.59
328.15 K | 1386.6 | – | 20.97
333.15 K | 1382 | – | 18.1
338.15 K | 1377.6 | – | 15.71
343.15 K | 1373.1 | – | 13.77
348.15 K | 1368.7 | – | 12.15
353.15 K | 1364.3 | – | 10.82
358.15 K | 1359.9 | – | 9.66
363.15 K | 1355.6 | – | 8.69

Settings | molar heat capacity at constant pressure [J/K/mol]
[4] | 578.01

CC(C)C[N+]1(C)CCCCC1.O=S(=O)([N-]S(=O)(=O)C(F)(F)F)C(F)(F)F
Settings | mass density [kg/m3] | refractive index | surface tension liquid-gas [mN/m] | viscosity [mPa·s]
[1], 303.15 K | 1392.9 | – | – | 125.12
[1], 308.15 K | 1388.6 | – | – | 96.4
[1], 308.2 K | – | – | 33.9 | –
[1], 313.15 K | 1384.4 | – | – | 76.03
[1], 318.15 K | 1380.1 | – | – | 60.67
[1], 318.2 K | – | – | 33.45 | –
[1], 323.15 K | 1375.9 | – | – | 49.34
[1], 328.15 K | 1371.7 | – | – | 40.71
[1], 328.2 K | – | – | 33.01 | –
[1], 333.15 K | 1367.5 | – | – | 34.11
[1], 338.15 K | 1363.3 | – | – | 28.76
[1], 338.2 K | – | – | 32.56 | –
[1], 343.15 K | 1359.1 | – | – | 24.57
[1], 343.2 K | – | – | 32.34 | –
[1], 348.15 K | 1355 | – | – | 21.18
[1], 353.15 K | 1350.8 | – | – | 18.47
[1], 358.15 K | 1346.7 | – | – | 16.14
[1], 363.15 K | 1342.7 | – | – | 14.25
[3], 288.15 K | – | 1.43387 | – | –
[3], 293.15 K | – | 1.43243 | – | –
[3], 298.15 K | – | 1.43099 | – | –
[3], 303.15 K | – | 1.42955 | – | –
[3], 308.15 K | – | 1.42812 | – | –
[3], 313.15 K | – | 1.42668 | – | –
[3], 318.15 K | – | 1.42524 | – | –
[3], 323.15 K | – | 1.42381 | – | –
[3], 328.15 K | – | 1.42237 | – | –
[3], 333.15 K | – | 1.42093 | – | –

Settings | Molar enthalpy of transition or fusion [kJ/mol] | Normal melting temperature [°C]
[1] | – | 14.8
[2] | 2.4 | –
